Test results as given in US12653190B2, “Heteroaryl-triazole compounds as pesticides” (Bayer Aktiengesellschaft, priority 2020, dated 2026).

Assays:
Type in all cases: in vivo
[1] = system: Rhipicephalus (Boophilus) microplus larvae (strain Parkhurst, resistant against synthetic pyrethroids); assay: Rhipicephalus (Boophilus) microplus in-vitro contact test, larval cattle tick; conditions: 5 μg/cm^2 (=500 g/ha), after 48 hours, read-out: efficacy (larvae dead or moribund)
Description: Rhipicephalus (Boophilus) microplus—In-Vitro Contact Tests Larval Cattle Tick (Strain Parkhurst, Resistant Against Synthetic Pyrethroids)
(§1) 9 mg compound is solved in 1 mL acetone and diluted with acetone to the desired concentration. 250 μL of the test solution is filled in 25 mL glass test tubes and homogeneously distributed on the inner walls by rotation and tilting on a shaking device (2 h at 30 rpm). With a compound concentration of 900 ppm, an inner surface of 44.7 cm^2 and a homogeneous distribution, a dose of 5 μg/cm^2 is achieved.
After the solvent has evaporated, each test tube is filled with 20-50 cattle tick larvae (Rhipicephalus microplus), closed with a perforated lid and incubated in a horizontal position at 85% relative humidity and 27° C. in an incubator. After 48 hours efficacy is determined. The larvae are patted on the ground of the tubes and negative geotactic behavior is recorded.
An efficacy of 100% means all larvae are dead or moribund; 0% means no larvae are dead or moribund.

[2] = system: fall armyworm larvae (Spodoptera frugiperda); assay: Spodoptera frugiperda spray test; conditions: in Zea mays, 168 h
Method in brief: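 Maize leaf sections were sprayed with compound in acetone/dimethylformamide diluted in water with 1000 ppm emulsifier, dried, then infested with larvae. Mortality in % was scored after 7 days, 100% meaning all caterpillars killed.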

[3] = system: larvae of the southern green stink bug (Nezara viridula); assay: Nezara viridula spray test; conditions: 96 h, after 4 days, barley plants
Description: Nezara viridula—Spray Test
• Solvent: 78.0 parts by weight of acetone • 1.5 parts by weight of dimethylformamide • Emulsifier: alkylarylpolyglycol ether
(§2) To produce a suitable preparation of active compound, 1 part by weight of active compound is mixed with the stated amount of solvent, and the concentrate is diluted with water, containing an emulsifier concentration of 1000 ppm, to the desired concentration. Further test concentrations are prepared by dilution with emulsifier containing water.
Barley plants (Hordeum vulgare) are sprayed with a test solution containing the desired concentration of the active ingredient and are infested with larvae of the southern green stink bug (Nezara viridula).
After 4 days mortality in % is determined. 100% means all the stink bugs have been killed; 0% means none of the stink bugs have been killed.

[4] = system: green peach aphid (Myzus persicae); assay: Myzus persicae spray test; conditions: foliar, 120 h, after 5 days, Chinese cabbage leaf disks
Description: Myzus persicae—Spray Test
• Solvent: 78.0 parts by weight acetone • 1.5 parts by weight dimethylformamide • Emulsifier: alkylarylpolyglycol ether
as §2, with “solvents” for “solvent,”, “and” for “and the concentrate”
Chinese cabbage (Brassica pekinensis) leaf disks infected with all instars of the green peach aphid (Myzus persicae), are sprayed with a preparation of the active ingredient of the desired concentration.
(§3) After 5 days mortality in % is determined. 100% means all aphids have been killed and 0% means none of the aphids have been killed.

[5] = system: larvae of the banded cucumber beetle (Diabrotica balteata); assay: Diabrotica balteata spray test; conditions: 168 h, 100 g/ha (=32 μg/well), after 7 days, wheat seeds, read-out: efficacy (seedling growth)
Method in brief: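 Germinated wheat seeds on agar (5 per well) were sprayed with compound formulated in acetone/DMF and diluted in water with 1000 ppm emulsifier. Each unit was then infested with 10–20 larvae. Efficacy % was scored after 7 days as seedling growth relative to an untreated, uninfested control (100% = normal growth).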

[6] = system: adult brown dog ticks (Rhipicephalus sanguineus); assay: Rhipicephalus sanguineus in-vitro contact test, adult brown dog ticks; conditions: 5 μg/cm^2 (=500 g/ha), after 48 hours, read-out: efficacy (ticks dead or moribund)
Description: Rhipicephalus sanguineus—In-Vitro Contact Tests with Adult Brown Dog Ticks
as §1
(§4) After the solvent has evaporated, each test tube is filled with 5-10 adult brown dog ticks (Rhipicephalus sanguineus), closed with a perforated lid and incubated in a lying position at room temperature and relative humidity. After 48 hours efficacy is determined. The ticks are patted on the ground of the tubes and are incubated on a heating plate at 45-50° C. for at most 5 minutes Immotile or uncoordinated moving ticks, which are not able to escape the heat by climbing upwards, are marked as dead or moribund.
An efficacy of 100% means all ticks are dead or moribund; 0% means no ticks are dead or moribund.

[7] = system: adult cat fleas (Ctenocephalides felis); assay: Ctenocephalides felis in-vitro contact test, adult cat flea; conditions: 5 μg/cm^2 (=500 g/ha), after 48 hours, read-out: efficacy (fleas dead or moribund)
Description: Ctenocephalides felis—In-Vitro Contact Tests Adult Cat Flea
as §1
as §4, with “cat fleas (Ctenocephalides felis),” for “brown dog ticks (Rhipicephalus sanguineus),”, “fleas” for “ticks”, “fleas,” for “ticks,”
An efficacy of 100% means all fleas are dead or moribund; 0% means no fleas are dead or moribund.

[8] = system: adult engorged female ticks (Rhipicephalus microplus); assay: Rhipicephalus (Boophilus) microplus injection test; conditions: 168 h, egg deposition monitored after 7 days, read-out: efficacy (infertile eggs)
Description: Rhipicephalus (Boophilus) microplus—Iniectiontest
• Solvent: dimethyl sulfoxide
To produce a suitable preparation of active compound, 10 mg of active compound are dissolved in 0.5 mL solvent, and the concentrate is diluted with solvent to the desired concentration.
Five adult engorged female ticks (Rhipicephalus microplus) are injected with 1 μL compound solution into the abdomen. The ticks are transferred into replica plates and incubated in a climate chamber.
After 7 days egg deposition of fertile eggs is monitored. Eggs where fertility is not visible are stored in a climate chamber till hatching after about 42 days. An efficacy of 100% means all eggs are infertile; 0% means all eggs are fertile.

[9] = system: green peach aphid (Myzus persicae); assay: Myzus persicae oral test; conditions: 120 h, 4 ppm, after 5 days
Description: • Solvent: 100 parts by weight acetone
To produce a suitable preparation of active compound, 1 part by weight of active compound is mixed with the stated amount of solvent, and the concentrate is diluted with water to the desired concentration.
50 μL compound solution is filled in microtiter plates and 150 μL IPL41 insect medium (33%+15% sugar) is added to obtain a total volume of 200 μL per well. Afterwards the plates are sealed with parafilm through which a mixed population of the green peach aphid (Myzus persicae) can suck on the compound preparation.
as §3

[10] = system: adult flies Musca domestica strain WHO-N; assay: Musca domestica test (MUSCDO surface treatment & contact assay); conditions: 24 hours after contact, read-out: efficacy (mortality); for mortality at 4 mg/m2: surface concentration 4 mg/m^2, 30 minutes exposure; for mortality at 20 mg/m2: surface concentration 20 mg/m^2, 30 minutes exposure
Description: Musca domestica Test (MUSCDO Surface Treatment & Contact Assay)
(§5) • Solvent: Aceton+2000 ppm rapeseed oil methyl ester (RME)
(§6) In order to produce a sufficient, active ingredient containing solution it is necessary to solve the test compound in the solvent-mix (acetone at 2 mg/ml/RME 2000 ppm). This solution is pipetted onto a glazed tile and after evaporation of the acetone, adult flies of the species Musca domestica strain WHO-N are placed onto the dried surface. The exposure time is 30 minutes.
(§7) Mortality in percent (%) is determined 24 hours after contact of the insects to the treated surface. 100% mortality means that all tested insects are dead, whereas 0% means that no insect died.

[11] = system: adult mosquitoes Culex quinquefasciatus strain P00; assay: Culex quinquefasciatus test (CULXFA surface treatment & contact assay); conditions: 24 hours after contact, read-out: efficacy (mortality); for mortality at 4 mg/m2: surface concentration 4 mg/m^2, 30 minutes exposure; for mortality at 20 mg/m2: surface concentration 20 mg/m^2, 30 minutes exposure
Description: Culex quinquefasciatus Test (CULXFA Surface Treatment & Contact Assay)
as §5
In order to produce a sufficient, active ingredient containing solution it is necessary to solve the test compound in the solvent-mix (acetone at 2 mg/ml/RME 2 000 ppm). This solution is pipetted onto a glazed tile and after evaporation of the acetone, adult mosquitoes of the species Culex Quinquefasciatus strain P00 are placed onto the dried surface. The exposure time is 30 minutes. Mortality in percent (%) is determined 24 hours after contact of the insects to the treated surface. 100% mortality means that all tested insects are dead, whereas 0% means that no insect died.

[12] = system: adult mosquitoes Aedes aegypti strain MONHEIM; assay: Aedes aegypti test (AEDSAE surface treatment & contact assay); conditions: 24 hours after contact, read-out: efficacy (mortality); for mortality at 4 mg/m2: surface concentration 4 mg/m^2, 30 minutes exposure; for mortality at 20 mg/m2: surface concentration 20 mg/m^2, 30 minutes exposure
Description: Aedes aegypti Test (AEDSAE Surface Treatment & Contact Assay)
as §5
as §6, with “mosquitoes” for “flies”, “Aedes aegypti” for “Musca domestica”, “MONHEIM” for “WHO-N”
as §7

| Compound | pest or weed control at 5 µg/cm2, 5 µg/cm2 [1] [%] | mortality at 100 g/ha [2] [%] | mortality at 100 g/ha [3] [%] | mortality at 500 g/ha [3] [%] | mortality at 100 g/ha [4] [%] | pest or weed control at 32 µg/disc, 100 g/ha [5] [%] | pest or weed control at 5 µg/cm2, 5 µg/cm2 [6] [%] | pest or weed control at 5 µg/cm2, 5 µg/cm2 [7] [%] | pest or weed control at 4 µg/tick ([8]; 4 μg/tick injected) [%] | pest or weed control at 20 µg/tick ([8]; 20 μg/tick injected) [%] | mortality at 4 ppm [9] [%] | mortality at 4 mg/m2 [10] [%] | mortality at 20 mg/m2 [10] [%] | mortality at 4 mg/m2 [11] [%] | mortality at 20 mg/m2 [11] [%] | mortality at 4 mg/m2 [12] [%] | mortality at 20 mg/m2 [12] [%] |
| --- | --- | --- | --- | --- | --- | --- | --- | --- | --- | --- | --- | --- | --- | --- | --- | --- | --- |
| C[C@H](NC(=O)c1cc(Br)cc(C(F)(F)C2CC2)c1)c1ncnn1-c1cnc(C#N)cn1 [Example I-59] | 100 | 100 | 100 | 100 | 90 | 100 | 100 | 80 |  |  |  |  |  |  |  |  |  |
| C[C@H](NC(=O)c1cc(Br)cc(OC(C)(C)C#N)c1)c1ncnn1-c1ncc(C#N)s1 [Example I-60] | 100 | 100 |  |  |  | 100 |  | 80 |  |  |  |  |  |  |  |  |  |
| Cc1nc([C@H](C)NC(=O)c2cc(OC(C)c3ccc(Cl)cc3)cc(C(F)(F)F)c2)n(-c2ccc(C#N)cn2)n1 (stereo partly drawn) [Example I-15, 3-[1-(4-Chlorophenyl)ethoxy]-N-{(1S)-1-[1-(5-cyanopyridin-2-yl)-3-methyl-1H-1,2,4-triazol-5-yl]ethyl}-5-(trifluoromethyl)benzamide] |  |  |  |  |  | 100 | 80 |  | 100 | 100 |  |  |  |  |  |  |  |
| C[C@H](NC(=O)c1cc(OCC2CC2(Cl)Cl)cc(C(F)(F)F)c1)c1ncnn1-c1ccc(C#N)cn1 (stereo partly drawn) [Example I-29] |  |  |  |  |  | 100 |  |  |  |  | 90 |  |  |  |  |  |  |
| C[C@H](NC(=O)c1cc(OCC(Cl)=C(Cl)Cl)cc(C(F)(F)F)c1)c1ncnn1-c1ncc([N+](=O)[O-])s1 [Example I-34] |  |  |  |  |  |  |  |  |  |  | 90 |  |  |  |  |  |  |
| C[C@H](NC(=O)c1cc(C(F)(F)F)cc(C(C)(C)C#N)c1)c1ncnn1-c1cnc(C#N)cn1 [Example I-58] | 100 | 100 | 100 | 100 | 90 | 100 | 80 | 100 |  |  |  |  |  |  |  |  |  |
| Cc1nc([C@H](C)NC(=O)c2cc(OC3CCOCC3)cc(C(F)(F)F)c2)n(-c2ccc(C#N)cn2)n1 [Example I-21, N-{(1S)-1-[1-(5-Cyanopyridin-2-yl)-3-methyl-1H-1,2,4-triazol-5-yl]ethyl}-3-(tetrahydro-2H-pyran-4-yloxy)-5-(trifluoromethyl)benzamide] | 100 | 83 |  |  |  |  | 80 |  |  |  |  |  |  |  |  |  |  |
| C[C@H](NC(=O)c1cc(C(F)(F)F)cc(C(C)(C)C#N)c1)c1ncnn1-c1ccc(C#N)cn1 [Example I-42] | 100 | 100 | 100 | 100 | 100 | 100 | 80 | 80 |  |  |  | 80 to 100 | 80 to 100 | 80 to 100 | 80 to 100 | 80 to 100 | 80 to 100 |
| C[C@H](NC(=O)c1cc(C(F)(F)F)cc(C(C)(C)C#N)c1)c1ncnn1-c1ncc(C#N)s1 [Example I-44, 3-(1-Cyano-1-methyl-ethyl)-N-[(1S)-1-[2-(5-cyanothiazol-2-yl)-1,2,4-triazol-3-yl]ethyl]-5-(trifluoromethyl)benzamide] | 100 | 100 | 100 | 100 | 100 |  | 80 | 100 |  |  |  | 80 to 100 | 80 to 100 | 80 to 100 | 80 to 100 | 80 to 100 | 80 to 100 |
